In ChEMBL document CHEMBL4052632 (Eur J Med Chem, 2017):

Columns and labels:
[1] = target: T1, Glycogen synthase kinase-3 beta (Homo sapiens, UniProt P49841); assay: Inhibition of recombinant human GSK3beta using […] as substrate at 100 uM after 60 mins by spectrophotometric analysis
Target sequence in this assay (P49841 whole entry, looked up): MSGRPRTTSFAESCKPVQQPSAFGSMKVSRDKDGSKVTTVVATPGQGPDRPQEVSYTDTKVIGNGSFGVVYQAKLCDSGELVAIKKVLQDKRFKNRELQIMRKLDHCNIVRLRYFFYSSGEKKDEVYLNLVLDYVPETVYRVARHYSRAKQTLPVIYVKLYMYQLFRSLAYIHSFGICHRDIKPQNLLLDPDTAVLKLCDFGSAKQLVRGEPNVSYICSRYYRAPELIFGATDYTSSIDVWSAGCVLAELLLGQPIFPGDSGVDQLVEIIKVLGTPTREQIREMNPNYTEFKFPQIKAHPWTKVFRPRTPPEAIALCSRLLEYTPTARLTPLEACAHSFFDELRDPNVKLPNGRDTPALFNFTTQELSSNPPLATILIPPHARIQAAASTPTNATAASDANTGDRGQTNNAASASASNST

[2] = target: Cyclin-dependent kinase 1/cyclin B1 (Homo sapiens) (UniProt P06493+P14635); assay: Inhibition of recombinant human CDK1/CyclinB using Ulight-CFFKNIVTPRTPPPSQGK-amide as substrate at 100 uM after 15 mins in presence of ATP relative to control; assay type: protein-complex assay
[3] = target: Cyclin-dependent kinase 2/cyclin E1 (Homo sapiens) (UniProt P24864+P24941); assay: Inhibition of recombinant human CDK2/CyclinE using Ulight-CFFKNIVTPRTPPPSQGK-amide as substrate at 100 uM after 30 mins in presence of ATP relative to control; assay type: protein-complex assay
[4] = target: Mitogen-activated protein kinase 13 (Homo sapiens) (UniProt O15264); assay: Inhibition of recombinant human SAPK4 using Ulight-CFFKNIVTPRTPPPSQGK-amide as substrate at 100 uM after 15 mins in presence of ATP relative to control
[5] = target: Receptor tyrosine-protein kinase erbB-2 (Homo sapiens) (UniProt P04626); assay: Inhibition of ErbB2 (unknown origin) using poly (Glu, Tyr) 4:1 as substrate at 100 uM after 1 hr by ELISA relative to control
[6] = target: Receptor tyrosine-protein kinase erbB-4 (Homo sapiens) (UniProt Q15303); assay: Inhibition of ErbB4 (unknown origin) using poly (Glu, Tyr) 4:1 as substrate at 100 uM after 1 hr by ELISA relative to control
[7] = target: Vascular endothelial growth factor receptor 2 (Homo sapiens) (UniProt P35968); assay: Inhibition of KDR (unknown origin) using poly (Glu, Tyr) 4:1 as substrate at 100 uM after 1 hr by ELISA relative to control
[8] = target: Tyrosine-protein kinase receptor UFO (Homo sapiens) (UniProt P30530); assay: Inhibition of AXL (unknown origin) using poly (Glu, Tyr) 4:1 as substrate at 100 uM after 1 hr by ELISA relative to control
[9] = target: Insulin-like growth factor 1 receptor (Homo sapiens) (UniProt P08069); assay: Inhibition of IGF1R (unknown origin) using poly (Glu, Tyr) 4:1 as substrate at 100 uM after 1 hr by ELISA relative to control
[10] = system: A2780; assay: Induction of apoptosis in human A2780 cells after 24 hrs by annexin V/propidium iodide staining based flow cytometry; assay type: functional, cell-based
[11] = system: Mus musculus; assay: Toxicity in nude BALB/c mouse xenografted with human A2780 cells assessed as body weight loss at 30 mg/kg, ip administered once every 2 days for 14 consecutive days relative to control; assay type: organism-based; conditions: in vivo, 48 h
[12] = target: T1, Glycogen synthase kinase-3 beta; assay: biochemical
Target sequence in this assay (P49841 whole entry): as the sequence (P49841 whole entry, looked up) above
Description: Inhibition of recombinant N-terminal His6-tagged human GSK3beta H350L mutant expressed in baculovirus infected Sf21 insect cells using polypeptide GS-2 as substrate after 30 mins in presence of ATP by kinase-glo luminescence assay

Chain of Mitogen-activated protein kinase 13 (Homo sapiens) (O15264 whole entry): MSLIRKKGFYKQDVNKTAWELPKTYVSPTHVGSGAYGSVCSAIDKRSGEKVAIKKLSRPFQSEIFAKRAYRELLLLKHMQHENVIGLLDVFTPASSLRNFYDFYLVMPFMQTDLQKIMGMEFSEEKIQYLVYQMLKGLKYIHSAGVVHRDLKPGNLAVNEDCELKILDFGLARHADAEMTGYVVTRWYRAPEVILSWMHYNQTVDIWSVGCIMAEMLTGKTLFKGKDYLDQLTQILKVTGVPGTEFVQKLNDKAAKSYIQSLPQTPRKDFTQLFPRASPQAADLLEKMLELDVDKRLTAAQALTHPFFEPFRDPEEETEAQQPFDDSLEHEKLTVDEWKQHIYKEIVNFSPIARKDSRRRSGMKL
Chain of Vascular endothelial growth factor receptor 2 (Homo sapiens) (P35968 whole entry): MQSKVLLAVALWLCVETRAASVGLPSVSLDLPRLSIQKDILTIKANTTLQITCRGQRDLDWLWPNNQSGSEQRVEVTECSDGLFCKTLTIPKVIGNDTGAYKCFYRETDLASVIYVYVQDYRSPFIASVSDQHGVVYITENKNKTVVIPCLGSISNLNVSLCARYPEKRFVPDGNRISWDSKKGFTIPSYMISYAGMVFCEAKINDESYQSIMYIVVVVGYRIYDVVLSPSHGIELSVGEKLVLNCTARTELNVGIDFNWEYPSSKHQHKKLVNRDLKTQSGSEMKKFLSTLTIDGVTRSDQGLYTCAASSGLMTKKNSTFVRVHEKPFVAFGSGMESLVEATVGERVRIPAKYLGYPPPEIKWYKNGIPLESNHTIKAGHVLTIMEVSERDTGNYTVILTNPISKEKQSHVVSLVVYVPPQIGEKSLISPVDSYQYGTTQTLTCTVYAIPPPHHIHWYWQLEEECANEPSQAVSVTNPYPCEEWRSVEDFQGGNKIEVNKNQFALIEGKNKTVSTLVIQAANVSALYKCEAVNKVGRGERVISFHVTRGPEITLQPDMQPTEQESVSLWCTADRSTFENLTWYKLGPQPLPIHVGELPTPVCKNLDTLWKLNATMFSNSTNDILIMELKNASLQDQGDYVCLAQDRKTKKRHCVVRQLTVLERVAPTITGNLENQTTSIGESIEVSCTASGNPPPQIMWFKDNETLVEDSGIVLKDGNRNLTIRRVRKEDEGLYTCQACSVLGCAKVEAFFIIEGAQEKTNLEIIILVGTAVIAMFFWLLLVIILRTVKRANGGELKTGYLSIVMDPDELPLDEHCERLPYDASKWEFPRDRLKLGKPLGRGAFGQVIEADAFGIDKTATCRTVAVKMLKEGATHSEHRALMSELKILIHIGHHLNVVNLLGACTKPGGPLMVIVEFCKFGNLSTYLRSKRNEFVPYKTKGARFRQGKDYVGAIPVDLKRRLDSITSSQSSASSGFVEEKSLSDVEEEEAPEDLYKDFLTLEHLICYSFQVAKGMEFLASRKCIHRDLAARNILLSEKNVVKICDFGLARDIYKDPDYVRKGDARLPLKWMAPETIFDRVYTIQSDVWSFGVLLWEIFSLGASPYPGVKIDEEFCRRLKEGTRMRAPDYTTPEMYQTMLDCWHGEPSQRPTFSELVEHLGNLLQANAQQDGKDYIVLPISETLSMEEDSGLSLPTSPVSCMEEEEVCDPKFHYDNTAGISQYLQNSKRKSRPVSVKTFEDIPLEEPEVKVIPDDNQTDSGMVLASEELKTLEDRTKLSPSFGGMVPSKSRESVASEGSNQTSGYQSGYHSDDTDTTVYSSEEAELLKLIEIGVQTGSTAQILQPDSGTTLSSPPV
Chain of Insulin-like growth factor 1 receptor (Homo sapiens) (P08069 31-736 limits assumed): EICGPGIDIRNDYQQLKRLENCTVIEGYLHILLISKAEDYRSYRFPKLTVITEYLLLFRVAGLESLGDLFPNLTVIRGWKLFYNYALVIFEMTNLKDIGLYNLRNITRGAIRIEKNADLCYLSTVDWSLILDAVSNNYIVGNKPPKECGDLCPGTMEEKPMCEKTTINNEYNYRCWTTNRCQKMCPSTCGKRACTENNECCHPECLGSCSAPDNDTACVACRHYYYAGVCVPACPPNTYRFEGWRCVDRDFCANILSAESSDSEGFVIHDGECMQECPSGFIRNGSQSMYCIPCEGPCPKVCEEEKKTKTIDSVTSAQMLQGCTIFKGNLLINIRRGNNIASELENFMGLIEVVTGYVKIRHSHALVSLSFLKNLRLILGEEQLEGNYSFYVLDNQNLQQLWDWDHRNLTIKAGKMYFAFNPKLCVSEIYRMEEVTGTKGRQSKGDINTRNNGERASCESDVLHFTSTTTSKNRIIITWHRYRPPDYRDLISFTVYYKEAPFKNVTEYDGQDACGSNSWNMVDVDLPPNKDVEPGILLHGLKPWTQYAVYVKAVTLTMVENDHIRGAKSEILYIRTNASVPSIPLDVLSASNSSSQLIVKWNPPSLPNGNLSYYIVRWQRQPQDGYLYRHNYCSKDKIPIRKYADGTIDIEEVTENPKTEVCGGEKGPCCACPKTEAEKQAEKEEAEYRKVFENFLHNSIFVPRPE
Chain of Insulin-like growth factor 1 receptor (Homo sapiens) (P08069 741-1367 limits assumed): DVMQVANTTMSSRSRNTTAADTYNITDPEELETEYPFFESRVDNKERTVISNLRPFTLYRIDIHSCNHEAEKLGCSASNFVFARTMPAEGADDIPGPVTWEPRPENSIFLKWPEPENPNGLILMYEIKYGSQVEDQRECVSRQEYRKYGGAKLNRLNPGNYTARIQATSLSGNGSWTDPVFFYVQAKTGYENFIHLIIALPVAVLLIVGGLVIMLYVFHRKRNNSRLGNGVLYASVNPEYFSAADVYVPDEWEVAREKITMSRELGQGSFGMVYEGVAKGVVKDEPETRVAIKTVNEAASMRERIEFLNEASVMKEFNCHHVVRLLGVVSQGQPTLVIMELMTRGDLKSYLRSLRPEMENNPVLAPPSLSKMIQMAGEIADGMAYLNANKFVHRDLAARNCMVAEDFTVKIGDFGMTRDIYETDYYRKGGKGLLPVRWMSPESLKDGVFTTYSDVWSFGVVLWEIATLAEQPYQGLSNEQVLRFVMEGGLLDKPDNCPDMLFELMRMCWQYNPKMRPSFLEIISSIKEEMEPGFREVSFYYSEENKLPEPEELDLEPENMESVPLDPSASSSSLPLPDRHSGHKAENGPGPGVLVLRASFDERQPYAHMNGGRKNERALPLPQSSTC
Chain of Cyclin-dependent kinase 1/cyclin B1 (Homo sapiens) (P06493 whole entry, looked up): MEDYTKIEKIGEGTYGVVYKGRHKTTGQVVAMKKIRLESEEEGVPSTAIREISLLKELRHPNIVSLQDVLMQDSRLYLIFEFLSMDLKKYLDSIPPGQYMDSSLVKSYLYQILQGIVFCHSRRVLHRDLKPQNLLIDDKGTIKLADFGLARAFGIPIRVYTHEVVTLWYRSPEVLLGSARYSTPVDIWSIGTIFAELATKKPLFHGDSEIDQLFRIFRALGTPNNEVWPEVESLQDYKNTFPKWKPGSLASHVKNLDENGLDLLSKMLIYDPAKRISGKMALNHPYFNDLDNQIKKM
Chain of Cyclin-dependent kinase 1/cyclin B1 (Homo sapiens) (P14635 whole entry, looked up): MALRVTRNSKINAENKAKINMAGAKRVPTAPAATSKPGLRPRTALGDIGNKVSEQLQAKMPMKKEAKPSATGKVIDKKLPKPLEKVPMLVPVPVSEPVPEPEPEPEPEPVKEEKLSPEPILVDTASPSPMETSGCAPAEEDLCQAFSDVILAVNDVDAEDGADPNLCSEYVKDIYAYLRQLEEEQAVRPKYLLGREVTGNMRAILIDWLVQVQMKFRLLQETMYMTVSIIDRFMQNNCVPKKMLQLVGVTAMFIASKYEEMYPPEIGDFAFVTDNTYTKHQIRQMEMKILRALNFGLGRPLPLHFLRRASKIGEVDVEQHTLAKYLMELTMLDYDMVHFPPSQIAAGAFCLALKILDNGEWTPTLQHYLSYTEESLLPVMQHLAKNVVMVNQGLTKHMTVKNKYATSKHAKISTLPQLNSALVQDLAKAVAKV

CCCCCCCCCCCCCCC(=O)NC1CCN(C(=O)C2Sc3ccccc3N(CC)C2=O)CC1 (configuration not stated) showed an inhibition [1] of 94.3%, an inhibition [2] of 7% and an inhibition [3] of 39%. For the same compound, the inhibition [4] was 16%, the inhibition [5] was 0% and the inhibition [6] was 34.3%. For the same compound, the inhibition [7] was 22.5%, the inhibition [8] was 33.8% and the inhibition [9] was 5.1%. The Activity [10] was “Dose-dependent effect”, the Activity [11] was “Non-Toxic” and the IC50 [12] was 22.4 µM.
